The source of these data is patent publication US6642217B2, “Triterpenes having human antifungal and antiyeast activity” (Naturtek, LLC, priority 2000, dated 2003).

In data set [1] the test system is Microsporum audouinni. In words: Direct addition method, solid compound in Sabouraud dextrose agar. The data set is classed as cell-based, Microsporum audouinii. Details: key to Fungal growth: +++: Maximum Fungal Growth; ++: Moderate Fungal Growth; +: Minimum Fungal Growth; +/−: Very little Fungal Growth; −: No Fungal Growth. The conditions noted are these: for Fungal growth: 4 mg/mL of agar, 12th day after inoculation. The procedure, abridged: (§1)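 Autoclave Sabouraud dextrose agar; at 45° C. stir in solid compound (final 4 mg/ml); let it set as slants; inoculate culture; hold 10-12 days at 25-28° C., checking growth on alternate days; value = growth on day 12.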

For data set [2], the system named is Pityrosporum ovale. In words: Direct addition into the Pityrosporum agar. Details: key to Pityrosporum ovale growth: +++: Maximum Growth; ++: Moderate Growth; +: Minimum Growth; +/−: Very Little Growth; −: No Growth. The conditions noted are these: for Growth inhibition of Pityrosporum ovale by the direct addition method: 4 mg/ml; for Pityrosporum ovale growth: 4 mg/ml in the agar, 18 hours after inoculation. The data set is classed as cell-based. The protocol: Direct addition method. Sabouraud dextrose agar was prepared according to the manufacturer's instructions and 5.0 ml was dispensed in each 100×25 mm tube. The tubes were autoclaved. To each tube containing 5.0 ml of liquid agar at 45° C., 20 mg of solid test compound was added, to give a final concentration of 4 mg/ml. The agar was solidified in slants. The fungal cultures were then innoculated. […]

The next data set concerns P. ovale. In words: Summary of anti-fungal assays (direct addition, agar dilution, liquid culture). The conditions noted are these: stated in words (Tables 1a/1b, text to Table 5). The data set is classed as cell-based, Pityrosporum ovale. The protocol:
(§2) This example summarizes the results of various other assays of the anti-fungal activity of betulin derivatives. Table 5 summarizes results using different assay methods—direct addition, agar dilution, and direct addition to liquid culture, as disclosed in the previous three Examples. In some cases, only one type of assay was done with a compound. In other cases, the compound was tested by multiple assays.
A general note: In agar dilution the substance is mixed into plates at graded concentrations.

For data set [3], the system named is Epidermophyton floccosum. Described as above. The data set is classed as cell-based. The conditions noted are these: stated in words (Tables 1a/1b, text to Table 5). The protocol:
as §2

In data set [4] the test system is Trichophyton mentagrophytes. Described as above. The following applies: stated in words (Tables 1a/1b, text to Table 5). The data set is classed as cell-based. The protocol: as §2
Data set [5] has as its system Trichophyton rubrum. The data set is described as above. The data set is classed as cell-based. The conditions noted are these: stated in words (Tables 1a/1b, text to Table 5). The protocol: as §2
Another data set relates to Trichophyton tonsurans. The description is as above. The conditions noted are these: stated in words (Tables 1a/1b, text to Table 5). The data set is classed as cell-based. The protocol:
as §2

Data set [6] relates to Epidermophyton floccosum. In words: Direct addition method, solid compound in Sabouraud dextrose agar. The data set is classed as cell-based. Details: key: +++: Maximum Fungal Growth; ++: Moderate Fungal Growth; +: Minimum Fungal Growth; +/−: Very little Fungal Growth; −: No Fungal Growth. The following applies: 4 mg/mL of agar; 12th day after inoculation. The procedure, abridged:
as §1

Data set [7] concerns Microsporum canis. The description is as above. The data set is classed as cell-based. Details: key: +++: Maximum Fungal Growth; ++: Moderate Fungal Growth; +: Minimum Fungal Growth; +/−: Very little Fungal Growth; −: No Fungal Growth. The following applies: 4 mg/mL of agar; 12th day after inoculation. The procedure, abridged:
as §1

The subject of data set [8] is Pityrosporum ovale. Described as above. The data set is classed as cell-based. Details: key: +++: Maximum Fungal Growth; ++: Moderate Fungal Growth; +: Minimum Fungal Growth; +/−: Very little Fungal Growth; −: No Fungal Growth. The following applies: 4 mg/mL of agar; 12th day after inoculation. The method, boiled down:
as §1

The subject of data set [9] is Trichophyton rubrum. The data set is described as above. Details: key: +++: Maximum Fungal Growth; ++: Moderate Fungal Growth; +: Minimum Fungal Growth; +/−: Very little Fungal Growth; −: No Fungal Growth. The conditions noted are these: 4 mg/mL of agar; 12th day after inoculation. The data set is classed as cell-based. The procedure, abridged: as §1
A further data set relates to Microsporum audouinii. In words: Summary of anti-fungal assays (direct addition, agar dilution, liquid culture). The data set is classed as cell-based. The following applies: stated in words (Tables 1a/1b, text to Table 5). The protocol:
as §2

Data set [10] relates to Microsporum canis. In words: Agar dilution method, growth on Sabouraud dextrose agar slants. Details: key: +++: Maximum Fungal Growth; ++: Moderate Fungal Growth; +: Minimum Fungal Growth; +/−: Very little Fungal Growth; −: No Fungal Growth. The conditions noted are these: 12th day after inoculation. The data set is classed as cell-based. The method, boiled down: (§3)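 In this agar dilution format, DMSO solutions of compound went into liquid Sabouraud dextrose agar (45 °C), which was slanted and inoculated. Incubation ran 10-12 days at 25-28 °C.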

The subject of the next data set is Microsporum gypseum. The description is as above. The data set is classed as cell-based. Details: key: +++: Maximum Fungal Growth; ++: Moderate Fungal Growth; +: Minimum Fungal Growth; +/−: Very little Fungal Growth; −: No Fungal Growth. The following applies: 12th day after inoculation. The method, boiled down:
as §3

Data set [11] has as its system Pityrosporum ovale. Described as above. The data set is classed as cell-based. Details: key: +++: Maximum Fungal Growth; ++: Moderate Fungal Growth; +: Minimum Fungal Growth; +/−: Very little Fungal Growth; −: No Fungal Growth. The following applies: 12th day after inoculation. The method, boiled down:
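Autoclaved Sabouraud dextrose agar is cooled to 45 °C, dosed with compound from a DMSO solution, and solidified as slants. Fungi are then inoculated and the slants held at 25-28 °C for 10-12 days.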

Data set [12] has as its system Trichophyton rubrum. The data set is described as above. The data set is classed as cell-based. Details: key: +++: Maximum Fungal Growth; ++: Moderate Fungal Growth; +: Minimum Fungal Growth; +/−: Very little Fungal Growth; −: No Fungal Growth. The following applies: 12th day after inoculation. The procedure, abridged:
as §3

In data set [13] the test system is Microsporum audouinni. Described as above. The data set is classed as cell-based, Microsporum audouinii. Details: key: +++: Maximum Fungal Growth; ++: Moderate Fungal Growth; +: Minimum Fungal Growth; +/−: Very little Fungal Growth; −: No Fungal Growth. The conditions noted are these: 12th day after inoculation. The method, boiled down:
as §3

Another data set deals with Trichophyton tonsuran. Described as above. The data set is classed as cell-based, Trichophyton tonsurans. Details: key: +++: Maximum Fungal Growth; ++: Moderate Fungal Growth; +: Minimum Fungal Growth; +/−: Very little Fungal Growth; −: No Fungal Growth. The conditions noted are these: 12th day after inoculation. The method, boiled down:
as §3

Data set [14] relates to Trichophyton mentagrophyte. The data set is described as above. The data set is classed as cell-based, Trichophyton mentagrophytes. Details: key to Fungal growth: +++: Maximum Fungal Growth; ++: Moderate Fungal Growth; +: Minimum Fungal Growth; +/−: Very little Fungal Growth; −: No Fungal Growth. The conditions noted are these: 12th day after inoculation. The method, boiled down:
as §3

The subject of data set [15] is Epidermophyton floccosum. Described as above. The data set is classed as cell-based. Details: key to Fungal growth: +++: Maximum Fungal Growth; ++: Moderate Fungal Growth; +: Minimum Fungal Growth; +/−: Very little Fungal Growth; −: No Fungal Growth. The following applies: 12th day after inoculation. The procedure, abridged:
as §3

By melting point is commonly meant the temperature of the solid-liquid transition. On to `C=C(C)[C@@H]1CCC2(CO)CC[C@@]3(C)C(CCC4[C@@]5(C)C=C(O)C(=O)C(C)(C)C5CC[C@]43C)C12` (stereo partly drawn), for which the melting point was 167 to 170 °C (dec.).
As to `C=C(C)C1CCC2(COC(=O)CCCC(=O)O)CCC3(C)C(CCC4C5(C)CCC(O)C(C)(C)C5CCC43C)C12` (stereo not drawn) [Betulin-28-glutarate], the Fungal growth entry in the data set on Microsporum audouinni [1] is “+”; with Epidermophyton floccosum [6], “−”; with Microsporum canis [7] it was “+”; with Pityrosporum ovale [8], “−”; in the data set with Trichophyton rubrum [9] it was “+”. Also, the “Growth inhibition of Pityrosporum ovale by the direct addition method” value (from here on “Growth inhibition of Pityrosporum ovale”) in the data set on Pityrosporum ovale [2] is “inhibited the growth”. Also, the Pityrosporum ovale growth result in the data set on Pityrosporum ovale [2] was “+/−”. The “Active against Pityrosporum ovale” value in the data set with P. ovale is “Pityrosporum ovale,”. Also, the “Active against Epidermophyton floccosum” value with Epidermophyton floccosum [3] (listed as betulin-28-glutarate) is recorded as “against Epidermophyton floccosum”. In addition, in [4], the “Active against Trichophyton mentagrophytes” value is reported as “Trichophyton mentagrophytes,”. For the same molecule, the “Active against Trichophyton rubrum” value with Trichophyton rubrum [5] is on record as “Trichophyton rubrum,”. Also, in the data set on Trichophyton tonsurans, the “Active against Trichophyton tonsurans” value is given as “Trichophyton tonsurans,”.
Turning to `CC(=O)OC1CC[C@@]2(C)C(CC[C@]3(C)C2CCC2C4C5OC(=O)C4(CCC5(C)C)CC[C@@]23C)C1(C)C` (stereo partly drawn) [Allobetulinlactone-3-acetate, oleanan-28,19-β-lactone-3-acetate], the melting point was 312.5 to 315.4 °C (dec.).
For the molecule `C=C(C)C1CCC2(COC(=O)CC(C)(C)CC(=O)O)CCC3(C)C(CCC4C5(C)CCC(OC(=O)CC(C)(C)CC(=O)O)C(C)(C)C5CCC43C)C12` (stereo not drawn) [Betulin-3,28-di(3′,3′-dimethyl)glutarate], in the data set on Epidermophyton floccosum [3], the “Active against Epidermophyton floccosum” value is “against Epidermophyton floccosum”. Further, in the data set on Microsporum audouinii, the “Active against Microsporum audouinii” value is “Microsporum audouinii,”. Moreover, the “Active against Trichophyton mentagrophytes” value in data set [4] is “Trichophyton mentagrophytes,”. For the same molecule, in the data set on Trichophyton rubrum [5], the “Active against Trichophyton rubrum” value is “Trichophyton rubrum,”.
For the molecule `CC(C)C(N)C(=O)OC1CCC2(C)C(CCC3(C)C2CCC2C4C5OCC4(CCC5(C)C)CCC23C)C1(C)C` [Allobetulin-3-L-valine], the Fungal growth entry in the data set with Microsporum audouinni [1] was “−”; in the data set on Epidermophyton floccosum [6] it was “−”; with Microsporum canis [7], “+”; with Pityrosporum ovale [8] it was “−”; in the data set on Trichophyton rubrum [9], “+”. Besides, in the data set with Microsporum audouinni [1] (against Microsporum audouinii), the “best anti-fungal or anti-yeast activity by the direct addition method” value is recorded as “against Microsporum audouinii”. In addition, the “Growth inhibition of Pityrosporum ovale” value with Pityrosporum ovale [2] is “inhibited the growth”. Besides, the Pityrosporum ovale growth result with Pityrosporum ovale [2] is “+”. In addition, the “Active against Pityrosporum ovale” value in the data set with P. ovale is “Pityrosporum ovale”. Moreover, the “Active against Microsporum audouinii” value in the data set with Microsporum audouinii is on record as “Microsporum audouinii”.
In the case of `CC1(C)CCC23CC[C@@]4(C)C(CCC5[C@@]6(C)CC[C@H](O)C(C)(C)C6CC[C@]54C)C2C1OC3` (stereo partly drawn) [Allobetulin, oleanan-3β-ol-28,19-β-ether], the Fungal growth entry is on record as “+++” in the data set on Microsporum canis [10] (9 μg/ml); “++” in the data set with Microsporum canis [10] (19 μg/ml); “++” in the data set with Microsporum canis [10] (38 μg/ml); “−” in the data set with Microsporum canis [10] (75 μg/ml); “+++” in the data set on Microsporum gypseum (9 μg/ml); “++” in the data set with Microsporum gypseum (19 μg/ml). For the same molecule, the Fungal growth result in the data set on Microsporum gypseum (38 μg/ml) is reported as “++”; in the data set on Microsporum gypseum (75 μg/ml) it was “−”; in the data set with Pityrosporum ovale [11] (9 μg/ml), “+++”; in the data set with Pityrosporum ovale [11] (19 μg/ml), “+++”; in the data set with Pityrosporum ovale [11] (38 μg/ml) it was “++”; in the data set with Pityrosporum ovale [11] (75 μg/ml), “−”. In addition, the Fungal growth result is “++” with Trichophyton rubrum [12] (9 μg/ml); “++” in the data set on Trichophyton rubrum [12] (19 μg/ml); “+” with Trichophyton rubrum [12] (38 μg/ml); “−” with Trichophyton rubrum [12] (75 μg/ml); “+/−” in the data set on Microsporum audouinni [13] (9 μg/ml); “−” in the data set with Microsporum audouinni [13] (19 μg/ml). Further, the Fungal growth result is on record as “−” in the data set on Microsporum audouinni [13] (38 μg/ml); “−” with Microsporum audouinni [13] (75 μg/ml); “+++” in the data set on Trichophyton tonsuran (9 μg/ml); “++” in the data set with Trichophyton tonsuran (19 μg/ml); “++” in the data set with Trichophyton tonsuran (38 μg/ml); “−” with Trichophyton tonsuran (75 μg/ml). For the same molecule, the Fungal growth result in data set [14] (9 μg/ml) was “++”; in data set [14] (19 μg/ml), “+”; in [14] (38 μg/ml), “+”; in data set [14] (75 μg/ml), “−”; in the data set on Epidermophyton floccosum [15] (9 μg/ml), “++”; in the data set on Epidermophyton floccosum [15] (19 μg/ml), “+”. The Fungal growth entry was “+” in the data set on Epidermophyton floccosum [15] (38 μg/ml); “−” with Epidermophyton floccosum [15] (75 μg/ml); “+” in the data set on Microsporum audouinni [1]; “−” in the data set with Epidermophyton floccosum [6]; “++” with Microsporum canis [7]; “−” with Pityrosporum ovale [8]. Moreover, in the data set on Trichophyton rubrum [9], the Fungal growth entry is listed as “+”. The “Growth inhibition of Pityrosporum ovale” value in the data set on Pityrosporum ovale [2] is listed as “inhibited the growth”. Also, in the data set with Pityrosporum ovale [2], the Pityrosporum ovale growth result is “+/−”. Also, in the data set with P. ovale, the “Active against Pityrosporum ovale” value was “Pityrosporum ovale”. For the same molecule, in the data set on Microsporum audouinii, the “Active against Microsporum audouinii” value was “Microsporum audouinii”.
